Laboratory results reported in ChEMBL document CHEMBL3739384 (Medchemcomm, 2015).

How the values were obtained:
Format in all cases: cell-based, HEK-293T
Histamine H1 receptor = Histamine H1 receptor (Homo sapiens, UniProt P35367); test: Displacement of [3H]-mepyramine from human histamine H1 receptor expressed in HEK293T cells after 1 to 1.5 hrs by liquid scintillation counting analysis
Histamine H4 receptor = Histamine H4 receptor (Homo sapiens, UniProt Q9H3N8); test: Displacement of [3H]-histamine from human histamine H4 receptor expressed in HEK293T cells after 1 to 1.5 hrs by liquid scintillation counting analysis
Sequence of Histamine H4 receptor (Q9H3N8 whole entry): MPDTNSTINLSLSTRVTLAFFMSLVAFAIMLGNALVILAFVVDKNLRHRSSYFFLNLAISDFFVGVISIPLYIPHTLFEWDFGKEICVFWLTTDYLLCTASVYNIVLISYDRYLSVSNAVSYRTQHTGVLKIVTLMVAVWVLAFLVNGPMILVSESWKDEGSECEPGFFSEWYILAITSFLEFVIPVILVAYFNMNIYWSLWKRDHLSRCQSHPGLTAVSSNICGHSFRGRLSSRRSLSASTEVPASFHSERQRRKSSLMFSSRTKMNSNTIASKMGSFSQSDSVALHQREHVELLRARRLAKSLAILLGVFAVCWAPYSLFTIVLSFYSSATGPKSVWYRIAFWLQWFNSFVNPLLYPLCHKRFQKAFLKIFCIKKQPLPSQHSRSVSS

[1] = molecular target: Beta-2 adrenergic receptor (Homo sapiens, UniProt P07550); test: Displacement of [3H]-dihydroalprenolol from human beta2 adrenergic receptor expressed in HEK293T cells after 1 to 1.5 hrs by liquid scintillation counting analysis
Sequence of Beta-2 adrenergic receptor (P07550 whole entry): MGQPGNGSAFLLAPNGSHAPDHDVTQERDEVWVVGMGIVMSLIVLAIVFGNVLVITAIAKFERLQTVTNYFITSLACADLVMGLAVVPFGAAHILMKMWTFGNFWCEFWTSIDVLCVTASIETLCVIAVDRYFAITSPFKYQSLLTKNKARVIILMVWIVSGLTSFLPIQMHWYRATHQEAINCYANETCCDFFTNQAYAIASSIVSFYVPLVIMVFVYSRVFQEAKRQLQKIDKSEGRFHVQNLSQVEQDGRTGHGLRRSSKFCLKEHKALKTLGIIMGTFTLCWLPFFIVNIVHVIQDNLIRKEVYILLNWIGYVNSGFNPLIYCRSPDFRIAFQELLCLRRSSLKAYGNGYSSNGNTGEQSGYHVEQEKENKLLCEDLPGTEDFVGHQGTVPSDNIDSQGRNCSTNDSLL

Sequence of Histamine H1 receptor (P35367 whole entry): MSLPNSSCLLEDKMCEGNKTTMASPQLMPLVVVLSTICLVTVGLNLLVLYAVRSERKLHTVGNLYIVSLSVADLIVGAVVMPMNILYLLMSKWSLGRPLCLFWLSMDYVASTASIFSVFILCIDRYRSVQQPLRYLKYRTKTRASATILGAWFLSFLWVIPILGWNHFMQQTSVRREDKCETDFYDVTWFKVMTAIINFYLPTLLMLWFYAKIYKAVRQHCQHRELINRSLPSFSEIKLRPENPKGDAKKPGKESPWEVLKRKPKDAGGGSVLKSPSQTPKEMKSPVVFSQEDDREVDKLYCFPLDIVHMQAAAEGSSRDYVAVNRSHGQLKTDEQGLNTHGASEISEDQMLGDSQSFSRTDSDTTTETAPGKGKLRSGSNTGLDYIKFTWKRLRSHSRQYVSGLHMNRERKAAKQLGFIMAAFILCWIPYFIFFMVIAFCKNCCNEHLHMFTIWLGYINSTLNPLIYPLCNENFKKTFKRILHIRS

## Cc1cc(N2CCN(C)CC2)nc(N2CCOCC2)n1
Histamine H1 receptor
  Ki: < 10 µM
Histamine H4 receptor
  Ki: 6.92 µM

## CN1CCN(c2ncnc3c2oc2ccccc23)CC1
[1]
  Ki: > 10 µM
Histamine H4 receptor
  Ki: 0.145 µM

## COc1ccc2c(c1)[nH]c1c(N3CCN(C)CC3)ncnc12
[1]
  Ki: > 10 µM
Histamine H4 receptor
  Ki: 6.31 µM

## Cc1nc(N2CCN(C)CC2)c2oc3ccccc3c2n1
[1]
  Ki: > 10 µM
Histamine H4 receptor
  Ki: 0.148 µM

## Cc1cc2nc(SCCN(C)C)[nH]c2cc1C
Histamine H1 receptor
  Ki: > 10 µM
Histamine H4 receptor
  Ki: 6.92 µM

## COc1ccc2[nH]c3c(N4CCN(C)CC4)ncnc3c2c1
[1]
  Ki: > 10 µM
Histamine H4 receptor
  Ki: 5.89 µM

## Cc1nnc2c(N3CCN(C)CC3)nc3ccccc3n12
Histamine H1 receptor
  Ki: < 10 µM
Histamine H4 receptor
  Ki: 6.46 µM

## CCc1nc(N2CCN(C)CC2)c2oc3ccccc3c2n1
[1]
  Ki: > 10 µM
Histamine H4 receptor
  Ki: 0.269 µM

## CN(C)CCNc1ncnc2c1[nH]c1ccc(Cl)cc12
[1]
  Ki: > 10 µM
Histamine H4 receptor
  Ki: 5.89 µM
